“Also recorded” adds a separate entry of the source.
Key:
[1] = system: MC65 cells; assay: Rotenone protection assay in MC65 cells; type: cell-based; conditions: up to 1 μM, rotenone 10 μM, 48 h
Method: The medium was removed and compounds were added at the indicated concentrations in fresh growth medium, and the cells were incubated for another 2 h. Rotenone was then added at a final concentration of 10 μM, and the plates were then incubated for 48 h. Cell viability was assessed by MTT assay.

[2] = system: intracellular oxidative stress in MC65 cells; assay: ROS production assay in MC65 cells (DCFH-DA); type: cell-based; conditions: −TC, 48 h, DCFH-DA 25 μM, read-out: IC50 for suppression of intracellular oxidative stress
Method: Cells were harvested, washed twice with cold PBS, then suspended in PBS and incubated with DCFH-DA (25 μM) in dark for 1 h. Fluorescence was analyzed by flow cytometry using a Millipore Guava® easyCyte flow cytometer.

[3] = biological target: T1, Aβ42 (Homo sapiens, UniProt P05067); assay: Thioflavin T assay of Aβ42 fibril formation; type: biochemical; conditions: up to 100 μM, 48 h, ThT
T1 construct: purchased American Peptide, Inc. (Sunnyvale, Calif.)
Method: Briefly, 1 μL of each compound solution in DMSO (0.01 μM to 100 μM) was added to corresponding wells in a 96-well plate. Each concentration was prepared in independent triplicates and a solvent control was included. To each well, 9 μL of 25 μM Aβ42 in PBS (pH 7.4) was added, and then plates were incubated in dark at room temperature for 48 h. Next, 200 μL of a 5 μM ThT in 50 mM glycine solution (pH 8.0) was added to each well.

[4] = system: APP/PS1 transgenic mice; assay: Oral treatment of APP/PS1 transgenic AD mouse model; type: in vivo; conditions: 50 mg/kg oral gavage, 12 weeks, 4 month-old APP/PS1 mice
Method: FIG. 8A-D. AM24 (7) (50 mg/kg) oral gavage treatment in 4 month-old APP/PS1 transgenic animals during 12 weeks. Immunochemistry was performed using anti-Aβ 1-16 Clone 82E1 (1/1000, Mouse) in (A) control and (B) AM24-treated mice. Percent area of (C) Cortex (Cx) and (D) Cortex plus Hippocampus (CxHp) was measured. Statistical analysis was performed by T test *p<0.05. Experiment was assessed with APP/PS1-saline (n=4) and APP/PS1-AM24 (n=7) mice. Scale bar represents 500 μm.
FIG. 9A-C. AM24 (7) (50 mg/kg) oral gavage treatment during 12 weeks in 4 month-old APP/PS1 transgenic animals. Immunochemistry was performed using anti-Aβ 1-16 Clone 82E1 (1/1000, Mouse) in (A) control and (B) AM24-treated mice. (C) Percent area Hippocampus (Hp) was measured. Experiment was assessed with APP/PS1-saline (n=4) and APP/PS1-AM24 (n=7) mice. […] Scale bar represents 200 μm.
FIG. 10A-E. AM24 (7) (50 mg/kg) oral gavage treatment during 12 weeks in 4 month-old APP/PS1 transgenic animals. Immunochemistry in (A) control and (B) AM24-treated mice and (C) Western Blot were performed using anti-GFAP (1/250 and 1/2000 respectively, Rabbit). (D) Band Intensity was compared with saline treated APP/PS1 mice. (E) Percent area Hippocampus (Hp) was measured. Experiment was assessed with APP/PS1-saline (n=4) and APP/PS1-AM24 (n=7) mice. […] Scale bar represents 200 μm. […]
FIG. 15A-B. AM24 (7) (50 mg/kg) oral gavage treatment in 4 month-old APP/PS1 transgenic animals during 12 weeks. (A) Western-blot was performed using anti-HNE (1/2000, Rabbit) stress marker. (B) Band Intensity was compared with saline treated APP/PS1 mice. Experiment was assessed with APP/PS1-saline (n=4) and APP/PS1-AM24 (n=7) mice. Statistical analysis was performed by T test ** p<0.01.
FIG. 16A-B. AM24 (50 mg/kg) oral gavage treatment in 4 month-old APP/PS1 transgenic animals during 12 weeks. (A) Mitochondrial complex Western-blot was performed using OXPhOS cocktail antibody (1/2000, Mouse) to measure I, II, III and V Complex, and MTCO CIV for complex IV (1/2000, Mouse). (B) Band Intensity was compared with saline treated APP/PS1 mice. Experiment was assessed with APP/PS1-saline (n=4) and APP/PS1-AM24 (n=7) mice. Statistical analysis was performed by T test **p<0.01.
APP/PS1 (amyloid precursor protein/presenilin-1) transgenic mice are a well known model for Alzheimer's disease. In this study, APP/PS1 mice were treated with 50 mg/kg of AM24 (compound 7) and the effects on cell type/morphology and the levels of several neuroinflammatory and stress markers was observed. […] However, there was no decrease in hippocampal plaques (FIG. 9A-C). Additionally, there was no change in the expression of glial fibrillary acid protein (GFAP), a neuroinflammation marker, in the hippocampus of AM24 treated animals (FIG. 10A-E).

T1 sequence (P05067 672-713 limits assumed): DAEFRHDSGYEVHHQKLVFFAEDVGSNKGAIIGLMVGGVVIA

IC50 [2]: ~68 nM
inhibition of the formation of Aβ42 fibrils [3]: no significant inhibition
Compound: COc1ccc2[nH]cc(CCNC(=O)CC(=O)CCc3ccc(O)cc3)c2c1 [Compound 7, 5-(4-hydroxy-phenyl)-3-oxo-pentanoic acid [2-(5-methoxy-1H-indol-3-yl)-ethyl]-amide]
protection from rotenone-induced cytotoxicity [1]: did not show protection
NADH Dehydrogenase-Complex I (mitochondrial complex Western blot) [4]: powerful increase
cortical and cortex/hippocampal amyloid plaques [4]: significant decrease
expression of 8-Hydroxyguanosine (80HG) in the hippocampus [4]: significant decrease
expression of heme-oxygenase-1 (HO-1) [4]: no change
total number and type of glial cells (hippocampus, IBA-1) [4]: remained constant
expression of 4-hydroxy-2-nonenal (HNE) ([4]; vs saline): significant decrease
expression of GFAP in the hippocampus ([4]; listed as AM24): no change; also recorded: no differences were detected
hippocampal amyloid plaques ([4]; listed as AM24): no decrease; also recorded: no differences were detected
